According to ChEMBL document CHEMBL4831549, “The Marine Neurotoxin Brevetoxin (PbTx-2) Inhibits Karenia brevis and Mammalian Thioredoxin Reductases by Targeting Different Residues” (J Nat Prod, 2021):
Activity calls are given as the source filed them. No cut-off for these calls is given here.

How the values were obtained:
Karenia brevis [1] = assay: Inhibition of Karenia brevis TrxR assessed as reduction in substrate reduction at 40 uM using DTNB as a substrate incubated for 60 mins in the presence of NADPH followed by substrate addition measured for 5 mins by absorbance based assay relative to control
Karenia brevis [2] = assay: Inhibition of Karenia brevis TrxR assessed as reduction in substrate reduction at 10 to 100 uM using H2O2 as a substrate incubated for 60 mins in the presence of NADPH followed by substrate addition measured for 15 mins by absorbance based assay relative to control; conditions: dose 10-100 µM
Karenia brevis [3] = assay: Inhibition of Karenia brevis TrxR assessed as reduction in substrate reduction at 40 uM using human Trx and insulin as a substrate incubated for 60 mins in the presence of NADPH followed by substrate addition measured for 5 mins by absorbance based assay relative to control
Karenia brevis [4] = assay: Inhibition of Karenia brevis TrxR assessed as reduction in substrate reduction at 40 uM using GSSG as a substrate incubated for 60 mins in the presence of NADPH followed by substrate addition measured for 30 mins by absorbance based assay relative to control
Karenia brevis [5] = assay: Inhibition of Karenia brevis TrxRD3 assessed as reduction in substrate reduction at 40 uM using DTNB as a substrate incubated for 60 mins in the presence of NADPH followed by substrate addition measured for 5 mins by absorbance based assay relative to control
[6] = Inhibition of Karenia brevis TrxR assessed as reduction in substrate reduction using H2O2 as a substrate incubated for 60 mins in the presence of NADPH followed by substrate addition measured for 15 mins by absorbance based assay
[7] = target: T1, Thioredoxin reductase 1, cytoplasmic (Rattus norvegicus) (UniProt O89049); assay: Binding affinity to rat TrxR1 assessed as adduct formation at 7.2 uM by LC-MS/MS analysis
T1 sequence (whole entry): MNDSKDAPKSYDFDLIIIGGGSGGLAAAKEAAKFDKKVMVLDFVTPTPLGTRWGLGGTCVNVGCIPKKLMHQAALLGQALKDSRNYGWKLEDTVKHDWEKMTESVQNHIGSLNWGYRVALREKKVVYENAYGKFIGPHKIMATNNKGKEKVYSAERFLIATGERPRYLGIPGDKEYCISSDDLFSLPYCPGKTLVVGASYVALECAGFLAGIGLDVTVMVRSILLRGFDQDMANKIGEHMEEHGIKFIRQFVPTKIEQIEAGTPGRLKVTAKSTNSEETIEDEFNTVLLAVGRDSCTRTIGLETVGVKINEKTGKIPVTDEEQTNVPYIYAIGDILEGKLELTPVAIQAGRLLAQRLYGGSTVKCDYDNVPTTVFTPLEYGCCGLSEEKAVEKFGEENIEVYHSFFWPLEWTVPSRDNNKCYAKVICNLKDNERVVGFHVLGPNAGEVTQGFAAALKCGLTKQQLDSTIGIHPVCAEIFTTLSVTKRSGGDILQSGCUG

Karenia brevis [8] = assay: Binding affinity Karenia brevis TrxR assessed as formation at 7.2 uM by LC-MS/MS analysis

C=C(C=O)C[C@@H]1C[C@H](O)[C@]2(C)O[C@@H]3C[C@@H]4O[C@@H]5C[C@]6(C)O[C@]7(C)CC[C@@H]8O[C@@H]9C[C@]%10(C)O[C@@H]%11C(C)=CC(=O)O[C@H]%11C[C@H]%10O[C@H]9C[C@@H](C)[C@H]8O[C@H]7C[C@H]6O[C@@]5(C)C/C=C\[C@H]4O[C@H]3C[C@H]2O1 [BREVETOXIN B]
inhibition (Karenia brevis [1]): 44.7% | inhibition (Karenia brevis [2]): 39.6% | inhibition (Karenia brevis [3]): 34% | inhibition (Karenia brevis [4]): 32.5% | inhibition (Karenia brevis [5]): 20.7% | IC50 [6]: 56 µM | Activity [7]: Active | Activity (Karenia brevis [8]): Active
